Columns and labels:
[1] = from C=CCNC(=O)O[C@@H]1CC[C@H](c2cc(Nc3ccc(S(=O)(=O)NCC=C)cc3F)nn2C(C)(C)C)C1; rcm bond; 20-membered ring; Grubbs Cat. M204; DCE; 1.92 mM; 25.0 °C
[2] = from C=CCNC(=O)O[C@@H]1CC[C@H](c2cc(Nc3ccc(S(=O)(=O)NCC=C)cc3F)nn2C(C)(C)C)C1; rcm bond; Grubbs Cat. M204 (Grubbs II); DCE; 1.92 mM; 25.0 °C; 40.0 h
CDK9/CyclinT1 [3] = target: T1, CDK9/CyclinT1 (Homo sapiens, UniProt P50750); test: CDK9/CyclinT1 ChEF Assay (AQT, Table C); type: biochemical; parameters: Wild-type, full length CDK9 in complex with wildtype, CyclinT1 (1-259): Biortus Cat #BP480/792/691; purchased Biortus BP480/792/691; settings: 10XKm
T1 sequence (P50750 whole entry): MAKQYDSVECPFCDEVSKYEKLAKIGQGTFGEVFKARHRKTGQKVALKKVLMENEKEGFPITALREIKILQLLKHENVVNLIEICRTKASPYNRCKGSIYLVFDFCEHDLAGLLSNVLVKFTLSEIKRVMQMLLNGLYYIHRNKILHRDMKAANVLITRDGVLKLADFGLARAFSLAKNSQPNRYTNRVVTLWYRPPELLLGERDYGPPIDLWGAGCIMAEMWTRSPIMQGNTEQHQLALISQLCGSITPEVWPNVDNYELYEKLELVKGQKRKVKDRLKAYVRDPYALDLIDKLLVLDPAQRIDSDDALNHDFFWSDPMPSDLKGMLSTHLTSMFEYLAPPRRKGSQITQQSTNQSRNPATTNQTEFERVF
T1 sequence (O60563 1-259 partner limits assumed): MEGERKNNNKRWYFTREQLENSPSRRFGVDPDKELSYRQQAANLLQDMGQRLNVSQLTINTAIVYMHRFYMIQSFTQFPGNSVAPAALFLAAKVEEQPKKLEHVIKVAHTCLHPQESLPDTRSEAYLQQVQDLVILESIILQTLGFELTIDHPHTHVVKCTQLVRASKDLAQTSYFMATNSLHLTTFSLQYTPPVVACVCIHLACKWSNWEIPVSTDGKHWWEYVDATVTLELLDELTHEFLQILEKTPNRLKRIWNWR
Experimental: 16 nL of 1000× compound in 100% DMSO is added to a 384-well low volume, black assay plate. 12 μL of 1.3×CDK9/CyclinT1 (Wild-type, full length CDK9 in complex with wildtype, CyclinT1 (1-259): Biortus Cat #BP480/792/691) diluted in assay buffer (54 mM Hepes, 0.012% Brij-35, 10 mM MgCl2, 0.55 mM EGTA, 1% Glycerol, 0.02% BSA, and 1.2 mM DTT) is added to the plates on top of the compound and pre-incubated for 30 minutes at room temperature. Following the incubation, 4 μL of 4×Sox-chromophore (CSox) labeled peptide substrate (AQT0449, AssayQuant) & ATP diluted in assay buffer is added to the plate to initiate the reaction. The assay is incubated at room temperature for 180 min after initiation. The CSox peptide substrate is phosphorylated by CDK9/T1 upon ATP hydrolysis.
(§1) The fluorescent intensity measurement of the assay plate is read on a microplate reader once the assay is initiated and again at the completion of the assay. Phosphorylation of the CSox-based peptide substrate sensor results in an immediate increase in fluorescence. These raw fluorescence intensity values are normalized to calculate percent inhibition, which are fit to a four-parameter logistic curve and IC50 values are calculated. IC50 values are converted to Ki using substrate, KM^app values, and the Cheng-Prusoff equation.

CDK9/CyclinT1 [4] = target: T1, CDK9/CyclinT1; test: CDK9/CyclinT1 Mobility Shift Assay (Caliper, Table B); type: biochemical; parameters: Wild-type, full length CDK9 in complex with wildtype, CyclinT1 (1-259): Biortus Cat #BP480/792/691; purchased Biortus BP480/792/691; settings: read-out: CDK9/Cyclin T1 Caliper Ki: Average Ki
Experimental: 10 nL of 2000× compound in 100% DMSO is added to a 384-well polypropylene assay plate. 15 μL of 1.3×CDK9/T1 and 1.3× fluorescent substrate (Wild-type, full length CDK9 in complex with wildtype, CyclinT1 (1-259): Biortus Cat #BP480/792/691 and FL-Peptide 34: PerkinElmer Cat #760643) diluted in kinase buffer (50 mM Hepes, 0.01% Brij-35, 10 mM MgCl2, 1 mM EGTA, 0.05% BSA, and 2 mM DTT) is added to the plates on top of the compound, mixed, and pre-incubated for 30 minutes at room temperature. The fluorescently labeled peptide substrate is phosphorylated by CDK9/T1 upon ATP hydrolysis. Following the incubation, 5 μL of 4×ATP diluted in kinase buffer is added to the plate to initiate the reaction. Following the 30-minute incubation, the reaction is stopped by adding 75 μL of stopping buffer containing 0.5 M EDTA.
The assay plate is then read on a Lab Chip EZ Reader which separates the fluorescently labeled substrate and product peptides through a mobility difference. The phosphorylation of the substrate imparts a negative charge, which allows differences in separation as both are pulled through the microfluidic chip. The ratio of substrate and product values are used to generate percent conversion. These raw percent conversion values are normalized to calculate percent inhibition, which are fit to a four-parameter logistic curve and IC50 values are calculated. IC50 values are converted to Ki using substrate, Kmapp values, and the Cheng-Prusoff equation.

CDK1/CyclinB1 = target: T2, CDK1/CyclinB1 (Homo sapiens, UniProt P06493); test: CDK1/CyclinB1 ChEF Assay (AQT, Table C); type: biochemical; settings: 10xKm, read-out: CDK1/CCNB1 AQT AQT10xKm Ki: Average Ki
T2 construct: Wild-type, full length CDK1 in complex with wildtype, full length CyclinB1: Carna Cat #04-102; purchased Carna 04-102
T2 sequence (P06493 whole entry): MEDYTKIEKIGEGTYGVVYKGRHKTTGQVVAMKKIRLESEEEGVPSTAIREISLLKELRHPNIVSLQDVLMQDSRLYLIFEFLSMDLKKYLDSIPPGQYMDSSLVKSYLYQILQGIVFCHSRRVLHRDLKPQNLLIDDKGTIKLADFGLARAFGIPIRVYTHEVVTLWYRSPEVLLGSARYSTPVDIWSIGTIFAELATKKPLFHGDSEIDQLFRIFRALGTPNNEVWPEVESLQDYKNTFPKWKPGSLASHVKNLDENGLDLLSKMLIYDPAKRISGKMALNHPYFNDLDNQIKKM
T2 sequence (P14635 whole entry partner): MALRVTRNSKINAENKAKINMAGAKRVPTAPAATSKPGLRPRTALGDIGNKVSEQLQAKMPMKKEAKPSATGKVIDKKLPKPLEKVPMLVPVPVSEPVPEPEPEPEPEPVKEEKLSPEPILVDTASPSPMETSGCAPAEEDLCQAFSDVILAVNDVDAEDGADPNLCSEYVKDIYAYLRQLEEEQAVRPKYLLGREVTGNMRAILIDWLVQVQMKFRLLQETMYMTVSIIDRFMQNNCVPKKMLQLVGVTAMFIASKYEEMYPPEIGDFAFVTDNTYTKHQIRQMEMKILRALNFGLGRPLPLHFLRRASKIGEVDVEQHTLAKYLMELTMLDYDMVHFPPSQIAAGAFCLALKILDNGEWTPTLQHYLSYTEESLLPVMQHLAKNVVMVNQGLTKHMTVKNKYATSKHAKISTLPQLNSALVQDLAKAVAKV
Experimental: (§2) 16 nL of 1000× compound in 100% DMSO is added to a 384-well low volume, black assay plate. 12 μL of 1.3×CDK1/CyclinB1 (Wild-type, full length CDK1 in complex with wildtype, full length CyclinB1: Carna Cat #04-102) diluted in assay buffer (54 mM Hepes, 0.012% Brij-35, 10 mM MgCl2, 0.55 mM EGTA, 1% Glycerol, 0.02% BSA, and 1.2 mM DTT) is added to the plates on top of the compound and pre-incubated for 30 minutes at room temperature. Following the incubation, 4 uL of 4×Sox-chromophore (CSox) labeled peptide substrate (AQT0297, AssayQuant) & ATP diluted in assay buffer is added to the plate to initiate the reaction. The assay is incubated at room temperature for 120 min after initiation. The CSox peptide substrate is phosphorylated by CDK1/B1 upon ATP hydrolysis.
as §1

CDK2/CyclinA2 = target: T3, CDK2/CyclinA2 (Homo sapiens, UniProt P24941); test: CDK2/CyclinA2 ChEF Assay (AQT, Table C); type: biochemical; settings: 10xKm; for Ki: AQT ChEF, read-out: CDK2/CCNA2 AQT10xKm Ki: Average Ki; for CDK2/CCNA2 AQT10xKm Ki: CDK2/A2 Selectivity over CDK1/B1 / CDK2/CCNA2 AQT10xKm Ki: CDK2/A2 Selectivity over CDK9: AQT
T3 construct: Wild-type, full length CDK2 in complex with wildtype, full length CyclinA2: Carna Cat #04-103; purchased Carna 04-103
Experimental: as §2, with “1.3×CDK2/CyclinA2” for “1.3×CDK1/CyclinB1”, “CDK2” for “CDK1”, “CyclinA2:” for “CyclinB1:”, “#04-103” for “#04-102)”, “90” for “120”, “CDK2/A2” for “CDK1/B1”
as §1

CC(C)(C)n1nc2cc1[C@H]1CC[C@H](C1)OC(=O)NCC=CCNS(=O)(=O)c1ccc(c(F)c1)N2
ring closure, yield after HPLC [1]: 29% | ring closure, yield of all isomers [2]: 29%

NS(=O)(=O)c1ccc2cc1OCCCCCNC(=O)O[C@H]1CC[C@H](C1)c1cnc(nc1)N2 (stereo in doubt) [Compound 103, 12-oxo-5,13-dioxa-3,11-diaza-2(5,2)-pyrimidina-4(1,3)-benzena-1(1,3)-cyclopentanacyclotridecaphane-44-sulfonamide]
Ki (CDK9/CyclinT1 [3]): 1 to 25 nM | Ki (CDK9/CyclinT1 [4]): ≥ 100 nM | Ki (CDK1/CyclinB1): 1 to 25 nM | Ki (CDK2/CyclinA2): < 1 nM | CDK2/CCNA2 AQT10xKm Ki: CDK2/A2 Selectivity over CDK1/B1 (CDK2/CyclinA2): A (A>10) | CDK2/CCNA2 AQT10xKm Ki: CDK2/A2 Selectivity over CDK9 (CDK2/CyclinA2): A (A>10)

NS(=O)(=O)c1ccc2cc1OCCCCCNC(=O)O[C@H]1CC[C@H](C1)c1cnc(nc1)N2 (stereo in doubt) [Compound 104, rel-(2R,5S)-7-oxo-6,14-dioxa-8,20,22,25-tetraazatetracyclo[19.2.2.1^{2,5}.1^{15,19}]heptacosa-1(23),15,17,19(26),21,24-hexaene-16-sulfonamide]
Ki (CDK9/CyclinT1 [3]): ≥ 100 nM | Ki (CDK9/CyclinT1 [4]): ≥ 100 nM | Ki (CDK1/CyclinB1): 1 to 25 nM | Ki (CDK2/CyclinA2): < 1 nM | CDK2/CCNA2 AQT10xKm Ki: CDK2/A2 Selectivity over CDK1/B1 (CDK2/CyclinA2): A (A>10) | CDK2/CCNA2 AQT10xKm Ki: CDK2/A2 Selectivity over CDK9 (CDK2/CyclinA2): A (A>10)

Reference: patent US20260200943A1, “COMPOUNDS FOR TREATING CANCER” (Genesis Therapeutics, Inc., priority 2022, published 2026)
